Results reported in patent US20060069132A1, “Azolecarboxamide herbicides” (priority 2004, published 2006).

Assays:
[1] = system: large crabgrass; test: Test A pre-/postemergence herbicide test; format: in vivo, Digitaria sanguinalis
How it was run: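 Visual injury rating on a 0–100 scale (0 no effect, 100 complete control) versus untreated controls, about ten days after treatment in greenhouse. Pre: directed soil spray onto seeded sandy loam. Post: spray to runoff on plants 2–10 cm tall at one- to two-leaf stage.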

[2] = system: rice; test: Test B pre-/postemergence herbicide test; format: in vivo, Oryza sativa; conditions: preemergence
How it was run: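 Plants compared with untreated controls 13–15 days post-treatment and given a visual 0–100 injury score. Applications: preemergence to seeds; postemergence at 1- to 4-leaf (2–18 cm); paddy species flooded, 2-leaf stage. Vehicle non-phytotoxic, surfactant included.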

[3] = system: woolly cupgrass; test: Test C pre-/postemergence herbicide test; format: in vivo, Eriochloa villosa; conditions: for Cupgrass, Woolly plant response rating: 500 g ai/ha
How it was run: (§1)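 Pre- and postemergence application, solvent/surfactant formulation; post at 1- to 4-leaf stage (2–18 cm). Greenhouse 12–14 d. Visual rating vs controls, 0 = no effect, 100 = complete control.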

[4] = system: giant foxtail; test: Test C pre-/postemergence herbicide test; format: in vivo, Setaria faberi; conditions: for Foxtail, Giant plant response rating: 500 g ai/ha
How it was run: as §1

[5] = system: kochia; test: Test C pre-/postemergence herbicide test; format: in vivo, Kochia scoparia; conditions: for Kochia plant response rating: 500 g ai/ha
How it was run: as §1

[6] = system: morningglory; test: Test C pre-/postemergence herbicide test; format: in vivo, Ipomoea coccinea; parameters: key to Plant response rating, Morningglory: 0 = no effect, 100 = complete control; conditions: for Morningglory plant response rating: 500 g ai/ha
How it was run: as §1

[7] = system: pigweed; test: Test C pre-/postemergence herbicide test; format: in vivo, Amaranthus retroflexus; conditions: for Pigweed plant response rating: 500 g ai/ha
How it was run: as §1

[8] = system: barnyardgrass; test: Test C flooded paddy test; format: in vivo, Echinochloa crus-galli; conditions: for Plant response rating, Barnyardgrass: 500 g ai/ha, visual rating after 12 to 14 days
How it was run: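 After a postemergence application at 1 to 4 leaves (plants 2–18 cm high), or at 2 leaves for barnyardgrass in flooded paddy, plants stayed in the greenhouse for 12 to 14 days. Damage was then judged visually relative to control plants, with 100 indicating complete control.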

[9] = Postemergence, 500 g ai/ha, 0 to 100 scale, 0 no effect, 100 complete control
[10] = Postemergence, 2000 g ai/ha, 0 to 100 scale, 0 no effect, 100 complete control
[11] = Postemergence, 250 g ai/ha, scale 0 to 100, 0 no effect, 100 complete control
[12] = postemergence, 125 g ai/ha, scale 0 to 100
[13] = postemergence, 62 g ai/ha, scale 0 to 100
[14] = 62 g ai/ha, scale 0 to 100 (0 no effect, 100 complete control)
[15] = 250 g ai/ha, scale of 0 to 100, 0 is no effect, 100 is complete control
[16] = scale 0 to 100 (0 no effect, 100 complete control)
[17] = Preemergence, 500 g ai/ha, visual rating, 0 to 100 scale (0 no effect, 100 complete control)
[18] = Preemergence, 2000 g ai/ha, 0 to 100 scale, 0 no effect, 100 complete control
[19] = 125 g ai/ha, 0 to 100 scale, 0 is no effect, 100 is complete control

CCn1nc(C(C)(C)C)cc1C(=O)Nc1cccc(OC(F)(F)F)c1 [Compound 272]
Crabgrass, Large plant response rating [1, 9]: 55 | Plant response rating, Crabgrass, Large [1, 10]: 90 | Crabgrass, Large plant response rating ([1]; Preemergence, 2000 g ai/ha, visual rating, 0 to 100 scale (0 no effect, 100 complete control)): 100 | Crabgrass, Large plant response rating ([1]; preemergence, 500 g ai/ha, visual injury, 0 to 100 scale (0 no effect, 100 complete control)): 85 | Rice plant response rating (0 to 100 scale) ([2]; 125 g ai/ha, 0 = no effect, 100 = complete control): 0 | Plant response rating, Rice ([2]; 500 g ai/ha, visual rating, 0 = no effect, 100 = complete control): 20 | Cupgrass, Woolly plant response rating ([3]; Postemergence, scale 0 to 100): 65 | Plant response rating, Cupgrass, Woolly [3, 11]: 60 | Plant response rating, Cupgrass, Woolly [3, 12]: 40 | Plant response rating, Cupgrass, Woolly [3, 13]: 25 | Foxtail, Giant plant response rating ([4]; Postemergence, scale 0 to 100): 75 | Plant response rating, Foxtail, Giant [4, 11]: 60 | Plant response rating, Foxtail, Giant [4, 12]: 45 | Plant response rating, Foxtail, Giant [4, 13]: 15 | Kochia plant response rating ([5]; Postemergence, scale 0 to 100): 100 | Plant response rating, Kochia [5, 11]: 100 | Plant response rating, Kochia [5, 12]: 100 | Plant response rating, Kochia [5, 13]: 95 | Morningglory plant response rating ([6]; Postemergence, scale 0 to 100): 100 | Plant response rating, Morningglory [6, 11]: 100 | Plant response rating, Morningglory [6, 12]: 100 | Plant response rating, Morningglory [6, 13]: 80 | Pigweed plant response rating ([7]; Postemergence, scale 0 to 100): 100 | Plant response rating, Pigweed [7, 11]: 100 | Plant response rating, Pigweed [7, 12]: 100 | Plant response rating, Pigweed [7, 13]: 100 | Barnyardgrass plant response rating [8, 14]: 0 | Barnyardgrass plant response rating ([8]; 125 g ai/ha, scale 0 to 100 (0 no effect, 100 complete control)): 0 | Barnyardgrass plant response rating [8, 15]: 10 | Plant response rating, Barnyardgrass [8, 16]: 30

C#CCOC(=O)c1cccc(NC(=O)c2cc(C(C)(C)C)nn2CC)c1 [Compound 84]
Crabgrass, Large plant response rating [1, 9]: 20 | Plant response rating, Crabgrass, Large [1, 10]: 20 | Crabgrass, Large plant response rating [1, 17]: 0 | Crabgrass, Large plant response rating [1, 18]: 0 | Plant response rating, Rice [2, 19]: 0 | Cupgrass, Woolly plant response rating ([3]; Postemergence, scale 0 to 100): 0 | Plant response rating, Cupgrass, Woolly [3, 11]: 0 | Plant response rating, Cupgrass, Woolly [3, 12]: 0 | Plant response rating, Cupgrass, Woolly [3, 13]: 0 | Foxtail, Giant plant response rating ([4]; Postemergence, scale 0 to 100): 0 | Plant response rating, Foxtail, Giant [4, 11]: 0 | Plant response rating, Foxtail, Giant [4, 12]: 0 | Plant response rating, Foxtail, Giant [4, 13]: 0 | Kochia plant response rating ([5]; Postemergence, scale 0 to 100): 80 | Plant response rating, Kochia [5, 11]: 10 | Plant response rating, Kochia [5, 12]: 0 | Plant response rating, Kochia [5, 13]: 0 | Morningglory plant response rating ([6]; Postemergence, scale 0 to 100): 0 | Plant response rating, Morningglory [6, 11]: 0 | Plant response rating, Morningglory [6, 12]: 0 | Plant response rating, Morningglory [6, 13]: 0 | Pigweed plant response rating ([7]; Postemergence, scale 0 to 100): 100 | Plant response rating, Pigweed [7, 11]: 100 | Plant response rating, Pigweed [7, 12]: 100 | Plant response rating, Pigweed [7, 13]: 100

CCn1nc(C(C)(C)C)cc1C(=O)Nc1cccc(C(=O)OC)c1 [Compound 81]
Plant response rating, Rice [2, 19]: 0 | Plant response rating, Cupgrass, Woolly [3, 11]: 5 | Plant response rating, Cupgrass, Woolly [3, 12]: 5 | Plant response rating, Cupgrass, Woolly [3, 13]: 5 | Plant response rating, Foxtail, Giant [4, 11]: 20 | Plant response rating, Foxtail, Giant [4, 12]: 10 | Plant response rating, Foxtail, Giant [4, 13]: 10 | Plant response rating, Kochia [5, 11]: 70 | Plant response rating, Kochia [5, 12]: 20 | Plant response rating, Kochia [5, 13]: 0 | Plant response rating, Morningglory [6, 11]: 10 | Plant response rating, Morningglory [6, 12]: 10 | Plant response rating, Morningglory [6, 13]: 10 | Plant response rating, Pigweed [7, 11]: 40 | Plant response rating, Pigweed [7, 12]: 10 | Plant response rating, Pigweed [7, 13]: 5 | Barnyardgrass plant response rating [8, 14]: 0 | Barnyardgrass plant response rating ([8]; 125 g ai/ha, scale of 0 to 100, 0 is no effect, 100 is complete control): 0 | Barnyardgrass plant response rating [8, 15]: 0 | Plant response rating, Barnyardgrass [8, 16]: 30

C=CCOC(=O)c1cccc(NC(=O)c2cc(C(C)(C)C)nn2CC)c1 [Compound 85]
Crabgrass, Large plant response rating [1, 9]: 20 | Plant response rating, Crabgrass, Large [1, 10]: 30 | Crabgrass, Large plant response rating [1, 17]: 0 | Crabgrass, Large plant response rating [1, 18]: 5 | Plant response rating, Rice [2, 19]: 0 | Cupgrass, Woolly plant response rating ([3]; Postemergence, scale 0 to 100): 85 | Plant response rating, Cupgrass, Woolly [3, 11]: 80 | Plant response rating, Cupgrass, Woolly [3, 12]: 50 | Plant response rating, Cupgrass, Woolly [3, 13]: 40 | Foxtail, Giant plant response rating ([4]; Postemergence, scale 0 to 100): 70 | Plant response rating, Foxtail, Giant [4, 11]: 50 | Plant response rating, Foxtail, Giant [4, 12]: 20 | Plant response rating, Foxtail, Giant [4, 13]: 10 | Kochia plant response rating ([5]; Postemergence, scale 0 to 100): 90 | Plant response rating, Kochia [5, 11]: 90 | Plant response rating, Kochia [5, 12]: 60 | Plant response rating, Kochia [5, 13]: 20 | Morningglory plant response rating ([6]; Postemergence, scale 0 to 100): 80 | Plant response rating, Morningglory [6, 11]: 60 | Plant response rating, Morningglory [6, 12]: 40 | Plant response rating, Morningglory [6, 13]: 10 | Pigweed plant response rating ([7]; Postemergence, scale 0 to 100): 100 | Plant response rating, Pigweed [7, 11]: 100 | Plant response rating, Pigweed [7, 12]: 100 | Plant response rating, Pigweed [7, 13]: 100
